Reference: patent US4443436A, “C-20-Modified macrolide derivatives of the macrolide antibiotics tylosin, desmycosin, macrocin, and lactenocin” (Eli Lilly and Company, priority 1982, dated 1984)
Converted amounts (≈) assume the structure as drawn. Read-outs that look alike come from different tables or passages of the source.

What was measured:
[1] = test system: Staphylococcus aureus X1.1; test: MIC, standard agar-dilution assay, Staphylococcus aureus X1.1; type: cell-based; conditions: Staphylococcus aureus, X1.1
[2] = test system: Staphylococcus aureus V41; test: MIC, standard agar-dilution assay, Staphylococcus aureus V41; type: cell-based; conditions: Staphylococcus aureus, V41
[3] = test system: Staphylococcus aureus X400; test: MIC, standard agar-dilution assay, Staphylococcus aureus X400; type: cell-based
[4] = test system: Staphylococcus aureus S13E; test: MIC, standard agar-dilution assay, Staphylococcus aureus S13E; type: cell-based; conditions: Staphylococcus aureus, S13E
[5] = test system: Staphylococcus epidermidis EPI1; test: MIC, standard agar-dilution assay, Staphylococcus epidermidis EPI1; type: cell-based
[6] = test system: Staphylococcus epidermidis EPI2; test: MIC, standard agar-dilution assay, Staphylococcus epidermidis EPI2; type: cell-based; conditions: Staphylococcus epidermidis EPI2; agar dilution; read-out: MIC
[7] = test system: Streptococcus pyogenes C203; test: MIC, standard agar-dilution assay, Streptococcus pyogenes C203; type: cell-based; conditions: Streptococcus pyogenes, C203
[8] = test system: Streptococcus pneumoniae Park I; test: microbe, parasite or virus in culture; type: cell-based; conditions: Streptococcus pneumoniae
[9] = test system: Streptococcus Group D X66; test: MIC, standard agar-dilution assay, Streptococcus Group D X66; type: cell-based
Streptococcus Group 9960 = test: MIC, standard agar-dilution assay, Streptococcus Group 9960; type: cell-based; conditions: GROUP9960
[10] = test system: Haemophilus influenzae Holt; test: MIC, standard agar-dilution assay, Haemophilus influenzae Holt; type: cell-based
[11] = test system: Haemophilus influenzae R252; test: MIC, standard agar-dilution assay, Haemophilus influenzae R252; type: cell-based
Staphylococcus aureus = test: MIC, broth-dilution microtiter test, Staphylococcus aureus; type: cell-based; conditions: broth-dilution microtiter, read-out: MIC
Text: (§1) The MIC's in Table X were obtained using conventional broth-dilution microtiter tests.

Streptococcus bovis 80 = test: MIC, broth-dilution microtiter test, Streptococcus bovis 80; type: cell-based; conditions: Streptococcus equinus
Text: as §1

[12] = test system: Pasteurella multocida 17E; test: MIC, broth-dilution microtiter test, Pasteurella multocida 17E; type: cell-based
Text: as §1

[13] = test system: Pasteurella multocida 60A; test: MIC, broth-dilution microtiter test, Pasteurella multocida 60A; type: cell-based
Text: as §1

[14] = test system: Pasteurella hemolytica 22C; test: MIC, broth-dilution microtiter test, Pasteurella hemolytica 22C; type: cell-based
Text: as §1

Mycoplasma gallisepticum = test: MIC, broth-dilution microtiter test, Mycoplasma gallisepticum; type: cell-based; conditions: Mycoplasmoides gallisepticum; Mycoplasma gallisepticum; broth-dilution microtiter; read-out: MIC
Text: as §1

Mycoplasma synoviae = test: MIC, broth-dilution microtiter test, Mycoplasma synoviae; type: cell-based; conditions: Mycoplasmopsis synoviae
Text: as §1

Mycoplasma hyorhinis = test: MIC, broth-dilution microtiter test, Mycoplasma hyorhinis; type: cell-based
Text: as §1

Mycoplasma hyopneumoniae = test: MIC, broth-dilution microtiter test, Mycoplasma hyopneumoniae; type: cell-based; conditions: Mesomycoplasma hyopneumoniae
Text: as §1

[15] = test system: Streptococcus pyogenes C203; test: In vivo protection of mice experimentally infected with S. pyogenes C203; conditions: Streptococcus pyogenes, mice, doses given 1 and 4 hours post-infection
Description: The C-20 modified derivatives of this invention have shown in vivo antimicrobial activity against experimentally-induced infections in laboratory animals. When two doses of test compound were administered to mice experimentally infected with S. pyogenes C203, the activity observed was measured as an ED50 value [effective dose in mg/kg to protect 50% of the test animals: see Warren Wick, et al., J. Bacteriol. 81, 233-235 (1961)].

Pasteurella multocida = test: Oral (gavage) treatment of Pasteurella multocida-infected chicks; type: in vivo, one-day-old chicks
Description: Many of the C-20 modified derivatives of this invention have also shown in vivo antibacterial activity against infections induced by gram-negative bacteria. Tables XII and XIII summarize the results of tests in which illustrative compounds were evaluated against Pasteurella infection in one-day-old chicks. The compounds were administered parenterally or orally after challenge of the chicks with Pasteurella multocida (0.1 ml of a 10^-4 dilution of a twenty-hour tryptose broth culture of an avian P. multocida given subcutaneously). In these tests, unless indicated otherwise, all non-medicated infected chicks died within 24 hours of Pasteurella challenge. In the tests summarized in Table XII the compounds were administered by subcutaneous injection at a dosage of 30 mg/kg, 1 and 4 hours post-challenge of the chicks with P. multocida. In the test summarized in Table XIII the compounds were administered by gavage at 1 and 5 hours post-challenge of the chicks with P. multocida.

[16] = Streptococcus bovis 80, broth-dilution microtiter, read-out: MIC
[17] = Pasteurella multocida 60A, avian isolate, broth-dilution microtiter, read-out: MIC
[18] = Pasteurella hemolytica 22C, broth-dilution microtiter, read-out: MIC
[19] = Mycoplasma hyopneumoniae, broth-dilution microtiter, read-out: MIC
[20] = C203, sc, subcutaneous, read-out: ED50, Subcutaneous
[21] = C203, oral, read-out: ED50, Oral
[22] = Staphylococcus epidermidis, EPI1

With `CCC1OC(=O)CC(O)C(C)C(OC2OC(C)C(O)C(N(C)C)C2O)C(CCF)CC(C)C(=O)C=CC(C)=CC1COC1OC(C)C(O)C(OC)C1OC` (stereo not drawn) [Compound 22, 20-DH-DO-20-Fluorodesmycosin] as the compound, how does the MIC [1] read?
The MIC was 0.25 µg/mL (≈ 0.322 µM).

What about the MIC [2] of the same compound?
The MIC was 0.25 µg/mL (≈ 0.322 µM).

What about the MIC ([3]; Staphylococcus aureus X400, methicillin-resistant strain, agar dilution, read-out: MIC) of the same compound?
The MIC was 0.5 µg/mL (≈ 0.644 µM).

What about the MIC [4] of the same compound?
Its MIC is 0.25 µg/mL (≈ 0.322 µM).

What about the MIC ([5]; Staphylococcus epidermidis EPI1, agar dilution, read-out: MIC) of the same compound?
Its MIC is 0.12 µg/mL (≈ 0.155 µM).

What about the MIC [6] of the same compound?
Its MIC is 0.12 µg/mL (≈ 0.155 µM).

What about the MIC [7] of the same compound?
Its MIC is 0.25 µg/mL (≈ 0.322 µM).

What about the MIC [8] of the same compound?
Its MIC is 2 µg/mL (≈ 2.58 µM).

What about the MIC [9] of the same compound?
Its MIC is 8 µg/mL (≈ 10.3 µM).

What about the MIC (Streptococcus Group 9960) of the same compound?
The MIC was 8 µg/mL (≈ 10.3 µM).

And the MIC ([10]; Haemophilus influenzae Holt, ampicillin-sensitive strain, read-out: MIC)?
Its MIC is 16 µg/mL (≈ 20.6 µM).

What about the MIC ([11]; Haemophilus influenzae R252, ampicillin-resistant strain, read-out: MIC) of the same compound?
The MIC was 16 µg/mL (≈ 20.6 µM).

And the MIC (Staphylococcus aureus)?
Its MIC is 3.12 µg/mL (≈ 4.02 µM).

What about the MIC (Streptococcus bovis 80; [16]) of the same compound?
Its MIC is 1.56 µg/mL (≈ 2.01 µM).

What about the MIC ([12]; Pasteurella multocida 17E, bovine isolate, broth-dilution microtiter, read-out: MIC) of the same compound?
Its MIC is 25 µg/mL (≈ 32.2 µM).

And the MIC [13, 17]?
Its MIC is 25 µg/mL (≈ 32.2 µM).

What about the MIC [14, 18] of the same compound?
The MIC was over 50 µg/mL.

What about the MIC (Mycoplasma gallisepticum) of the same compound?
The MIC was 12.5 µg/mL (≈ 16.1 µM).

And the MIC (Mycoplasma synoviae)?
The MIC was 50 µg/mL (≈ 64.4 µM).

And the MIC (Mycoplasma hyorhinis; Mycoplasma)?
Its MIC is 50 µg/mL (≈ 64.4 µM).

And the MIC (Mycoplasma hyopneumoniae; [19])?
The MIC was over 25 µg/mL.

What about the ED50 [15, 20] of the same compound?
Its ED50 is 5 mg/kg.

And the ED50 [15, 21]?
Its ED50 is 11 mg/kg.

And the “Number of Deaths/Number tested” value (Pasteurella multocida; 0.5 g/gal equivalent)?
Its value is 6/10.

What about the “Number of Deaths/Number tested” value (Pasteurella multocida; 1.0 g/gal equivalent) of the same compound?
The value was 0/10.

And the “Number of Deaths/Number tested” value (Pasteurella multocida; 2.0 g/gal equivalent)?
Its value is 1/10.

Which results are given for `CCC1OC(=O)CC(O)C(C)C(OC2OC(C)C(O)C(N(C)C)C2O)C(CCOc2ccc(C(=O)c3ccccc3)cc2)CC(C)C(=O)C=CC(C)=CC1COC1OC(C)C(O)C(OC)C1OC` (stereo not drawn) [Compound 37, 20-DH-20-O-(p-Benzoylphenyl)desmycosin]?
MIC [1]: 0.25 µg/mL (≈ 0.262 µM); MIC [2]: 0.25 µg/mL (≈ 0.262 µM); MIC ([3]; Staphylococcus aureus, X400): 0.25 µg/mL (≈ 0.262 µM); MIC [4]: 0.25 µg/mL (≈ 0.262 µM); MIC [5, 22]: 0.25 µg/mL (≈ 0.262 µM); MIC [6]: 0.12 µg/mL (≈ 0.126 µM); MIC [9]: 0.25 µg/mL (≈ 0.262 µM); MIC (Streptococcus Group 9960): 0.5 µg/mL (≈ 0.524 µM); MIC ([10]; Haemophilus influenzae): 16 µg/mL (≈ 16.8 µM); MIC ([11]; Haemophilus influenzae, R252): 16 µg/mL (≈ 16.8 µM); MIC (Staphylococcus aureus): 0.19 µg/mL (≈ 0.199 µM); MIC (Streptococcus bovis 80; [16]): 0.19 µg/mL (≈ 0.199 µM); MIC ([12]; Pasteurella multocida, 17E): 12.5 µg/mL (≈ 13.1 µM); MIC [13, 17]: 25 µg/mL (≈ 26.2 µM); MIC ([14]; Pasteurella, 22C): 12.5 µg/mL (≈ 13.1 µM); MIC (Mycoplasma gallisepticum): 0.19 µg/mL (≈ 0.199 µM); MIC (Mycoplasma synoviae): 1.56 µg/mL (≈ 1.63 µM); MIC (Mycoplasma hyorhinis; Mycoplasma): 0.78 µg/mL (≈ 0.817 µM); MIC (Mycoplasma hyopneumoniae; [19]): 0.19 µg/mL (≈ 0.199 µM); ED50 [15, 20]: 7.2 mg/kg; ED50 [15, 21]: 18 mg/kg; Number of Deaths/Number tested (Pasteurella multocida; 1.5 g/gal equivalent): 10/10

`CCC1OC(=O)CC(O)C(C)C(OC2OC(C)C(O)C(N(C)C)C2O)C(CCOc2ccc(OC)cc2)CC(C)C(=O)C=CC(C)=CC1COC1OC(C)C(O)C(OC)C1OC` (stereo not drawn) [Compound 35, 20-DH-20-O-(p-Methoxyphenyl)desmycosin] was tested. Which MIC [1] did it give?
Its MIC is 0.25 µg/mL (≈ 0.284 µM).

And the MIC [2]?
The MIC was 0.25 µg/mL (≈ 0.284 µM).

And the MIC ([3]; Staphylococcus aureus, X400)?
Its MIC is 0.25 µg/mL (≈ 0.284 µM).

What about the MIC [4] of the same compound?
Its MIC is 0.25 µg/mL (≈ 0.284 µM).

And the MIC [5, 22]?
Its MIC is 0.25 µg/mL (≈ 0.284 µM).

What about the MIC [6] of the same compound?
Its MIC is 0.12 µg/mL (≈ 0.136 µM).

And the MIC [7]?
The MIC was 1 µg/mL (≈ 1.14 µM).

What about the MIC [8] of the same compound?
Its MIC is 1 µg/mL (≈ 1.14 µM).

And the MIC [9]?
The MIC was 4 µg/mL (≈ 4.55 µM).

And the MIC (Streptococcus Group 9960; Streptococcus Group 9960, agar dilution, read-out: MIC)?
The MIC was 8 µg/mL (≈ 9.09 µM).

And the MIC ([11]; Haemophilus influenzae, R252)?
The MIC was 16 µg/mL (≈ 18.2 µM).

What about the MIC (Staphylococcus aureus) of the same compound?
The MIC was 0.39 µg/mL (≈ 0.443 µM).

And the MIC (Streptococcus bovis 80; 80)?
The MIC was 1.56 µg/mL (≈ 1.77 µM).

What about the MIC ([12]; Pasteurella multocida, 17E) of the same compound?
Its MIC is 12.5 µg/mL (≈ 14.2 µM).

What about the MIC ([13]; Pasteurella multocida, 60A) of the same compound?
Its MIC is 12.5 µg/mL (≈ 14.2 µM).

And the MIC [14, 18]?
Its MIC is 25 µg/mL (≈ 28.4 µM).

What about the MIC (Mycoplasma gallisepticum) of the same compound?
Its MIC is 0.39 µg/mL (≈ 0.443 µM).

And the MIC (Mycoplasma synoviae)?
The MIC was 0.78 µg/mL (≈ 0.886 µM).

And the MIC (Mycoplasma hyorhinis; Mycoplasma hyorhinis, broth-dilution microtiter, read-out: MIC)?
Its MIC is over 50 µg/mL.

And the MIC (Mycoplasma hyopneumoniae)?
Its MIC is 6.25 µg/mL (≈ 7.1 µM).

What about the ED50 [15, 20] of the same compound?
The ED50 was 1.6 mg/kg.

What about the ED50 [15, 21] of the same compound?
Its ED50 is 11 mg/kg.

And the “Number of Deaths/Number tested” value (Pasteurella multocida; 1.5 g/gal equivalent)?
Its value is 1/10.

And the “Number of Deaths/Number tested” value (Pasteurella multocida; 2.0 g/gal equivalent)?
Its value is 4/10.
